As a reminder, the Km is the substrate concentration at which the rate is half of its maximum.

These results are taken from paper PMC3476531, “Synergy of Peptide and Sugar in O-GlcNAcase Substrate Recognition” (Chemistry & Biology, 2012).

This experiment deals with CpOGA (Clostridium perfringens, UniProt Q0TR53). Conditions: read-out: Michaelis constant (KM) of glycopeptide substrate for CpOGA; pH 7.4.
As to “PVSVPYS(O-GlcNAc)SAQSTS [TAB1 (Ser395) 13]”, the Km is 36 ± 1 µM.
In the case of VAHS(O-GlcNAc)GAK [hOGA (Ser405) 7], the Km is 40 ± 10 µM.
The same measure for “p53 (Ser149) 11: 11-residue O-GlcNAc glycopeptide derived from p53 Ser149 site”: 2.9 ± 0.4 µM.
